Data set [1] concerns HT29 colon cells. Description: ROS detection assay (DCFH-DA fluorescence). To be noted: compounds at GI50 concentration, TBHP and NAC 20 μM. It counts as cell-based, human. Here is the method: HT29 colon cells were stained by DCFH-DA and then treated with the compounds at each specific GI50 concentration. Upon ROS production, the DCFH-DA produced […], a fluorescent product. The measured fluorescence was, therefore, proportional to the produced ROS. […] 56CLB at 24 h reported 395 RFU, 437 RFU at 48 h, and 558 RFU at 72 h (Table 6, Figure 14 and Figure S42), respectively, showing a significant production of ROS in comparison to control cells. 5CLB at 24 h produced 337 RFU, 324 RFU at 48 h, and 376 RFU at 72 h (Table 6, Figure 14 and Figure S42), respectively.
To investigate for the presence of ROS in treated cells, DCFDA/H2DCFDA-cellular ROS Assay Kit (Abcam, Cambridge, MA, USA) was used, as described. A total of 25,000 cells/mL of HT29 cells in DMEM were seeded in 96-well plates. Cells were washed with 1X kit buffer, then stained with 25 μM 2’,7’-dichlorofluorescein diacetate (DCFH-DA) and incubated for 45 min. DCFH-DA was then removed, and cells were then re-washed with 1X kit buffer, after which phenol red free media was added. Cells were then treated with GI50 drug concentration for each complex. The plates were directly scanned to measure fluorescence (relative fluorescence units (RFU)) at different time points using the Glo-Max®-Multimode microplate reader (Promega Corporation, Alexandra, VIC, Australia) at an excitation/emission of 485/535 nm. To generate the positive control (20 μM tert-butyl hydroperoxide (TBHP)), cells were washed with 1X kit buffer, and stained with DCFDA (25 μM) for 45 min. DCFDA was then removed and TBHP was added in phenol red free media. The plate was scanned to measure the RFU at different time points as mentioned above. The same method applies for the negative control treated with 20 μM N-acetylcysteine (NAC).

The test system of data set [2] is non-tumor-derived MCF10A breast line. Description: MTT growth inhibition assay, 72 h. Format: cell-based, human.
Data set [3] has as its system MIA pancreas. Description: MTT growth inhibition assay, 72 h. Format: cell-based, human. The conditions noted are these: MTT, 72 h.
For data set [4], the system named is A2780 ovarian. The data set is described as follows: MTT growth inhibition assay, 72 h. It counts as cell-based, human.
Data set [5] concerns BE2-C neuroblastoma. Description: MTT growth inhibition assay, 72 h. It counts as cell-based, human.
Data set [6] can be described thus: Lipophilicity by HPLC (log kw). To be noted: chromatographic lipophilicity index, extrapolated to 100% d.i.H2O. It counts as physicochemical. An excerpt:
For lipophilicity measurements, HPLC was utilized instead of the traditional shake-flask method, as described. A few studies have also reported the important and effective use of HPLC to measure the lipophilicity of compounds [66, 67]. Each complex was eluted under several isocratic ratios. A standard curve was then generated to calculate the log value of the capacity factor (log k) according to eqn (1). Following eqn (2), the percentage of organic solvent (CH3CN) in the mobile phase from each isocratic run was plotted against […] (Figure S34). Since log kw is the chromatographic lipophilicity index or measure of lipophilicity of the complex, a higher value corresponds to greater lipophilicity. Since PCLB, 5CLB, and 56CLB are structurally related, there were no significant variations in lipophilicity noted based on the calculated log kw values (Table 4). It is evident that PCLB is the least lipophilic of the group, with a calculated log kw value of 1.80, which is likely due to the absence of methyl groups in its phenanthroline system. 5CLB and 56CLB were the most lipophilic of the group with calculated log kw values of 1.90 and 1.87, respectively, and this is due to the presence of methyl substituents in their phenanthroline systems. […] Additionally, the chromatographic lipophilicity index of CLB was also measured using the abovementioned method, with a calculated log kw of 1.88, which is within the range observed for PCLB, 5CLB, and 56CLB. However, CLB was approximately 1-fold more lipophilic than PCLB. […] The order of increasing lipophilicity is […].
For lipophilicity measurements, analytical HPLC was utilized. Elution profiles were acquired on an Agilent Technologies 1260 Infinity instrument equipped with a Phenomenex Onyx^TM Monolithic C18-reverse phase column (100 × 4.6 mm, 5 µm pore size). The mobile phase consisted of solvents, A (0.06% TFA in d.i.H2O) and B (0.06% TFA in CH3CN/d.i.H2O (90:10)). Potassium iodide was used as an external dead volume marker to determine the dead time of the column. Retention times (TR) were measured at varying isocratic ratios ranging from 42% to 48% of solvent B at 1 mL/min. An injection volume of 10 µL was utilized. Capacity factors were determined according to Equation (1):(1) k=(TR−T0)/T0, where k is the capacity factor, TR is the retention time of the analyte, and T0 represents the dead time. A minimum of four different mobile compositions were used for each complex to calculate k. A linear plot was generated of log k against the concentration of CH3CN in the mobile phase to determine the value of log kw expressed by Equation (2):(2) logk=Sφ+logkw, where S is the slope, φ is the concentration of the CH3CN in the mobile phase and log kw represents the capacity factor of the complex in 100% d.i.H2O. […]

Data set [7] concerns HT29 colon. The data set is described as follows: MTT growth inhibition assay, 72 h. It counts as cell-based, human. The conditions noted are these: MTT, 72 h.

These results are taken from PMC9499463, “Potent Chlorambucil-Platinum(IV) Prodrugs” (International Journal of Molecular Sciences, 2022).

“And” between values parts separate entries of the source, which are not always exact repeats. Equal values may be shown once.

For `Cc1cc2cccnc2c2ncccc12.N[C@H]1CCCC[C@@H]1N.O=C([O-])CCCc1ccc(N(CCCl)CCCl)cc1.O=[N+]([O-])[O-].O=[N+]([O-])[O-].[OH-].[Pt+4]` [5CLB, [Pt^IV(5-methyl-1,10-phenanthroline)(S,S-DACH)(CLB)(OH)](NO3)2], the “ROS Production” value in data set [1] (24 h) was 337 RFU and 337 ± 8 RFU; in data set [1] (48 h), 324 RFU and 324 ± 5 RFU; in data set [1] (72 h), 376 RFU and 376 ± 1 RFU. Further, the GI50 is 0.022 ± 4.5e-06 µM in data set [2]; 0.034 ± 5e-06 µM in data set [3]; 0.046 ± 1.5e-05 µM in data set [4]; 0.23 ± 3.9e-05 µM in data set [5]; 0.019 ± 5.4e-06 µM in data set [7]. The log kw in data set [6] is 1.90 and 1.87.

Regarding `Cc1c(C)c2cccnc2c2ncccc12.N[C@H]1CCCC[C@@H]1N.O=C([O-])CCCc1ccc(N(CCCl)CCCl)cc1.O=[N+]([O-])[O-].O=[N+]([O-])[O-].[OH-].[Pt+4]` [56CLB, [Pt^IV(5,6-dimethyl-1,10-phenanthroline)(S,S-DACH)(CLB)(OH)](NO3)2], the “ROS Production” value in data set [1] (24 h) was 395 RFU and 395 ± 3 RFU; in data set [1] (48 h), 437 RFU and 437 ± 2 RFU; in data set [1] (72 h), 558 RFU and 558 ± 2 RFU. Further, the 50% growth inhibitory concentration (GI50) in data set [2] was 0.007 ± 4e-06 µM; in data set [3], 0.011 ± 3e-06 µM; in data set [4] it was 0.021 ± 4.7e-06 µM; in data set [5], 0.14 ± 1.2e-05 µM; in data set [7], 0.006 µM and 0.0061 µM. Moreover, in data set [6], the log kw was 1.87 and 1.90.

With `O=C(CCCc1ccc(N(CCCl)CCCl)cc1)[O][Pt-2]12([OH])([NH2+][C@H]3CCCC[C@@H]3[NH2+]1)[n+]1cccc3ccc4ccc[n+]2c4c31.O=[N+]([O-])[O-].O=[N+]([O-])[O-]` [PCLB, [Pt^IV(1,10-phenanthroline)(S,S-DACH)(CLB)(OH)](NO3)2], the “ROS Production” value was 190 RFU and 190 ± 2 RFU in data set [1] (24 h); 244 RFU and 244 ± 7 RFU in data set [1] (48 h); 285 RFU and 285 ± 3 RFU in data set [1] (72 h). For the same compound, the GI50 in data set [2] turned out to be 0.3 ± 4.5e-05 µM; in data set [3], 0.19 ± 3.2e-05 µM; in data set [4], 0.3 ± 4.8e-05 µM; in data set [5] it was 0.44 ± 3e-05 µM; in data set [7], 0.17 ± 4.6e-05 µM. In data set [6], the log kw is recorded as 1.80.
